Experimental data published in US20230058171A1, “NEW ORAL PHARMACEUTICAL COMPOSITION FOR CANCER THERAPY” (BOEHRINGER INGELHEIM INTERNATIONAL GMBH, priority 2021, published 2023).
Read-outs that look alike come from different tables or passages of the source.

Assay: Preliminary pharmacokinetics in trial 1403-0001 (Arm A D1 q3w, Arm B D1 D8 q4w)
Assay type: in vivo, human
Settings: for Vd/F / half-life / Tmax / AUC(0-inf) / Cmax: human, plasma, oral
From the text: Preliminary PK data were available from the first 45 treated patients in study 1403-0001. The exploratory PK analysis is based on planned blood sampling time-points and the results are subject to change because not all samples from these patients have been analyzed yet. Therefore, AUCs may be incomplete. In addition, information on the absorption, distribution, and elimination of the MDM2 antagonist of formula I are descriptive given the limited exploratory PK results available up to this point in time.
Consequently the preliminary PK results support the dose selection of 45 mg (and alternatively even of 30 mg) combined with the once in three weeks (D1 q3w) dose regimen. The tmax of the MDM2 antagonist of formula I is generally between 4 and 6 hours after tablet intake.

Cc1c(C(=O)O)ccc2c3n(nc12)[C@@H]1[C@H](C3)N(CC2CC2)[C@@]2(C(=O)Nc3cc(Cl)ccc32)[C@H]1c1cccc(Cl)c1F [MDM2-antagonist of formula I, (2′S,3′S,3a'S,10a'S)-6-chloro-3′-(3-chloro-2-fluorophenyl)-1′-(cyclopropylmethyl)-6′-methyl-2-oxo-1,2,3′,3a′,10′,10a′-hexahydro-1′H-spiro[indole-3,2′-pyrrolo[2′,3′:4,5]pyrrolo[1,2-b]indazole]-7′-carboxylic acid] gave a Vd/F (10 mg, Day 1, D1 D8 q4w (Arm B), gMean, N=3, read-out: Vz/F) of 24.5 L, a half-life (10 mg, Day 1, D1 D8 q4w (Arm B), gMean, N=3, read-out: t1/2 (converted)) of 52.4 h and a Tmax (10 mg, Day 1, D1 D8 q4w (Arm B), median, N=3, read-out: tmax) of 6 h. The AUC(0-inf) (10 mg, Day 8, D1 D8 q4w (Arm B), gMean, N=3, read-out: AUC0-∞) was 48.4 µM·h, the Cmax (10 mg, Day 8, D1 D8 q4w (Arm B), gMean, N=3, read-out: Cmax) was 714 nM and the Vd/F (10 mg, Day 8, D1 D8 q4w (Arm B), gMean, N=3, read-out: Vz/F) was 23.1 L. For the same compound, the half-life (10 mg, Day 8, D1 D8 q4w (Arm B), gMean, N=3, read-out: t1/2 (converted)) was 45.9 h, the Tmax (10 mg, Day 8, D1 D8 q4w (Arm B), median, N=3, read-out: tmax) was 5 h and the AUC(0-inf) (15 mg, Day 1, D1 D8 q4w (Arm B), gMean, N=3, read-out: AUC0-∞) was 37.8 µM·h. For the same compound, the Cmax (15 mg, Day 1, D1 D8 q4w (Arm B), gMean, N=3, read-out: Cmax) was 831 nM, the Vd/F (15 mg, Day 1, D1 D8 q4w (Arm B), gMean, N=3, read-out: Vz/F) was 32.3 L and the half-life (15 mg, Day 1, D1 D8 q4w (Arm B), gMean, N=3, read-out: t1/2 (converted)) was 33.4 h. For the same compound, the Tmax (15 mg, Day 1, D1 D8 q4w (Arm B), median, N=3, read-out: tmax) was 5 h, the AUC(0-inf) (15 mg, Day 8, D1 D8 q4w (Arm B), gMean, N=2, read-out: AUC0-∞) was 25.8 µM·h and the Vd/F (15 mg, Day 8, D1 D8 q4w (Arm B), gMean, N=2, read-out: Vz/F) was 37.3 L. The half-life (15 mg, Day 8, D1 D8 q4w (Arm B), gMean, N=2, read-out: t1/2 (converted)) was 26.3 h, the Cmax (15 mg, Day 8, D1 D8 q4w (Arm B), gMean, N=3, read-out: Cmax) was 776 nM and the Tmax (15 mg, Day 8, D1 D8 q4w (Arm B), median, N=3, read-out: tmax) was 4 h. For the same compound, the Cmax (20 mg, Arm A D1 q3w, 20 mg, N=2, read-out: Cmax (gMean)) was 1160 nM, the Tmax (20 mg, Arm A D1 q3w, 20 mg, N=2, read-out: tmax (median)) was 5.5 h and the AUC(0-inf) (20 mg, Day 1, D1 D8 q4w (Arm B), gMean, N=3, read-out: AUC0-∞) was 88.9 µM·h. It also gave a Cmax (20 mg, Day 1, D1 D8 q4w (Arm B), gMean, N=3, read-out: Cmax) of 1370 nM, a Vd/F (20 mg, Day 1, D1 D8 q4w (Arm B), gMean, N=3, read-out: Vz/F) of 27.7 L and a half-life (20 mg, Day 1, D1 D8 q4w (Arm B), gMean, N=3, read-out: t1/2 (converted)) of 50.5 h. The Tmax (20 mg, Day 1, D1 D8 q4w (Arm B), median, N=3, read-out: tmax) was 4 h, the AUC(0-inf) (20 mg, Day 8, D1 D8 q4w (Arm B), gMean, N=3, read-out: AUC0-∞) was 61.1 µM·h and the Cmax (20 mg, Day 8, D1 D8 q4w (Arm B), gMean, N=3, read-out: Cmax) was 1220 nM. For the same compound, the Vd/F (20 mg, Day 8, D1 D8 q4w (Arm B), gMean, N=3, read-out: Vz/F) was 30.5 L, the half-life (20 mg, Day 8, D1 D8 q4w (Arm B), gMean, N=3, read-out: t1/2 (converted)) was 38.2 h and the Tmax (20 mg, Day 8, D1 D8 q4w (Arm B), median, N=3, read-out: tmax) was 3 h. For the same compound, the AUC(0-inf) (30 mg, Arm A D1 q3w, 30 mg, N=3, read-out: AUC0-∞, gMean (gCV [%])) was 113 µM·h, the Cmax (30 mg, Arm A D1 q3w, 30 mg, N=3, read-out: Cmax (gMean)) was 2890 nM and the Vd/F (30 mg, Arm A D1 q3w, 30 mg, N=3, read-out: Vz/F, gMean (gCV [%])) was 23.6 L. The Tmax (30 mg, Arm A D1 q3w, 30 mg, N=3, read-out: tmax (median)) was 4 h, the AUC(0-inf) (30 mg, Day 1, D1 D8 q4w (Arm B), gMean, N=4, read-out: AUC0-∞) was 79.9 µM·h and the Cmax (30 mg, Day 1, D1 D8 q4w (Arm B), gMean, N=4, read-out: Cmax) was 1440 nM. For the same compound, the Vd/F (30 mg, Day 1, D1 D8 q4w (Arm B), gMean, N=4, read-out: Vz/F) was 33.1 L, the half-life (30 mg, Day 1, D1 D8 q4w (Arm B), gMean, N=4, read-out: t1/2 (converted)) was 36.2 h and the Tmax (30 mg, Day 1, D1 D8 q4w (Arm B), median, N=4, read-out: tmax) was 4.5 h. It also gave an AUC(0-inf) (30 mg, Day 8, D1 D8 q4w (Arm B), gMean, N=3, read-out: AUC0-∞) of 64.8 µM·h, a Cmax (30 mg, Day 8, D1 D8 q4w (Arm B), gMean, N=3, read-out: Cmax) of 1330 nM and a Vd/F (30 mg, Day 8, D1 D8 q4w (Arm B), gMean, N=3, read-out: Vz/F) of 44.6 L. For the same compound, the half-life (30 mg, Day 8, D1 D8 q4w (Arm B), gMean, N=3, read-out: t1/2 (converted)) was 39.5 h, the Tmax (30 mg, Day 8, D1 D8 q4w (Arm B), median, N=3, read-out: tmax) was 4 h and the AUC(0-inf) (45 mg, Arm A D1 q3w, 45 mg, N=6, read-out: AUC0-∞, gMean (gCV [%])) was 137 µM·h. The Cmax (45 mg, Arm A D1 q3w, 45 mg, N=6, read-out: Cmax (gMean)) was 2710 nM, the Vd/F (45 mg, Arm A D1 q3w, 45 mg, N=6, read-out: Vz/F, gMean (gCV [%])) was 35.1 L and the half-life (45 mg, Arm A D1 q3w, 45 mg, N=6, read-out: t1/2 (gMean) (converted)) was 43.7 h. For the same compound, the Tmax (45 mg, Arm A D1 q3w, 45 mg, N=6, read-out: tmax (median)) was 4 h, the AUC(0-inf) (45 mg, Day 1, D1 D8 q4w (Arm B), gMean, N=2, read-out: AUC0-∞) was 96.9 µM·h and the Cmax (45 mg, Day 1, D1 D8 q4w (Arm B), gMean, N=2, read-out: Cmax) was 2330 nM. It also gave a Vd/F (45 mg, Day 1, D1 D8 q4w (Arm B), gMean, N=2, read-out: Vz/F) of 34 L, a half-life (45 mg, Day 1, D1 D8 q4w (Arm B), gMean, N=2, read-out: t1/2 (converted)) of 30 h and a Tmax (45 mg, Day 1, D1 D8 q4w (Arm B), median, N=2, read-out: tmax) of 4 h. For the same compound, the AUC(0-inf) (50 mg, Arm A D1 q3w, 50 mg, N=4, read-out: AUC0-∞, gMean (gCV [%])) was 314 µM·h, the Cmax (50 mg, Arm A D1 q3w, 50 mg, N=4, read-out: Cmax (gMean)) was 3740 nM and the Vd/F (50 mg, Arm A D1 q3w, 50 mg, N=4, read-out: Vz/F, gMean (gCV [%])) was 23.7 L. It also gave a half-life (50 mg, Arm A D1 q3w, 50 mg, N=4, read-out: t1/2 (gMean) (converted)) of 60.9 h, a Tmax (50 mg, Arm A D1 q3w, 50 mg, N=4, read-out: tmax (median)) of 5.5 h and an AUC(0-inf) (60 mg, Arm A D1 q3w, 60 mg, N=6, read-out: AUC0-∞, gMean (gCV [%])) of 163 µM·h. It also gave a Vd/F (60 mg, Arm A D1 q3w, 60 mg, N=6, read-out: Vz/F, gMean (gCV [%])) of 31.4 L, a half-life (60 mg, Arm A D1 q3w, 60 mg, N=6, read-out: t1/2 (gMean) (converted)) of 34.9 h and a Cmax (60 mg, Arm A D1 q3w, 60 mg, N=7, read-out: Cmax (gMean)) of 3270 nM. The Tmax (60 mg, Arm A D1 q3w, 60 mg, N=7, read-out: tmax (median)) was 5 h, the AUC(0-inf) (60 mg, Day 1, D1 D8 q4w (Arm B), gMean, N=2, read-out: AUC0-∞) was 87.7 µM·h and the Cmax (60 mg, Day 1, D1 D8 q4w (Arm B), gMean, N=2, read-out: Cmax) was 1960 nM. It also gave a Vd/F (60 mg, Day 1, D1 D8 q4w (Arm B), gMean, N=2, read-out: Vz/F) of 57 L, a half-life (60 mg, Day 1, D1 D8 q4w (Arm B), gMean, N=2, read-out: t1/2 (converted)) of 34.2 h and a Tmax (60 mg, Day 1, D1 D8 q4w (Arm B), median, N=2, read-out: tmax) of 6 h. For the same compound, the Cmax (60 mg, Day 8, D1 D8 q4w (Arm B), gMean, N=2, read-out: Cmax) was 1890 nM, the Tmax (60 mg, Day 8, D1 D8 q4w (Arm B), median, N=2, read-out: tmax) was 16 h and the AUC(0-inf) (80 mg, Arm A D1 q3w, 80 mg, N=2, read-out: AUC0-∞, gMean (gCV [%])) was 205 µM·h. The Cmax (80 mg, Arm A D1 q3w, 80 mg, N=2, read-out: Cmax (gMean)) was 3930 nM, the Vd/F (80 mg, Arm A D1 q3w, 80 mg, N=2, read-out: Vz/F, gMean (gCV [%])) was 26.5 L and the half-life (80 mg, Arm A D1 q3w, 80 mg, N=2, read-out: t1/2 (gMean) (converted)) was 27.9 h. For the same compound, the Tmax (80 mg, Arm A D1 q3w, 80 mg, N=2, read-out: tmax (median)) was 3.5 h, the Tmax (after tablet intake, across dose groups, read-out: tmax) was 4 to 6 h and the half-life (range across dose groups, read-out: half-life) was 27.9 to 60.9 h. The half-life (Arm A D1 q3w, 30 mg, N=3, read-out: t1/2 (gMean) (converted)) was 36.4 h, the clearance (humans, preliminary PK data) was “low clearance” and the “dose levels at which exposure (Cmax and AUC0-inf) is above predicted therapeutic exposures” value (humans, preliminary PK data) was no less than 15 mg. For the same compound, the volume of distribution (humans, preliminary PK data) was “very low volume of distribution”.
